Measured values taken from patent US7902253B2, “Isoflavone derivatives of tectorigenin, the preparation thereof and the antiviral medicine containing the same as an effective constituent” (priority 2003, dated 2011).
≈ marks a conversion by molar mass, not a printed value. Where “and” joins values, the source holds several entries; their conditions need not be identical. Identical values can stand only once. Like-named read-outs stand apart in the source and are kept apart here.

Assays:
HSV-1 = format: cell-based
VZV = format: cell-based
[1] = tested on: influenza virus type A1 (Flu•V A1); format: cell-based
Z-HL16C cells = experiment: cell toxicity test; details: all concentrations tested
[2] = tested on: Coxsackie virus group B (CoxBV); format: cell-based
adenovirus type 3 (ADV3) = format: cell-based
Hep-2 cells = experiment: cell toxicity test; details: Hep-2, all concentrations tested
[3] = tested on: influenza virus type A3 (Flu•V A3); format: cell-based
adenovirus type 7 (ADV7) = format: cell-based
[4] = tested on: respiratory syncytial virus (RSV); format: cell-based
[5] = solubility test in water (Chinese Pharmacopeia method); details: 25° C.±2° C., shaken every five minutes for 30 minutes
[6] = solubility in water stated in description and preparation examples; format: physicochemical
[7] = clarity of injection after adding glucose; format: physicochemical
coronavirus BJ01 strain = experiment: organism not typed; format: cell-based, coronavirus (SARS); details: for IC50: Vero C1008, 120 h
Vero-E6 cell = experiment: toxicity to Vero-E6 cell (CPE, REED-MUENCH); details: five days, CPE index
[8] = product of the preparation example (salt as made), read-out: solubility in water

Structure (SMILES)	cell pathologic change degree (HSV-1)	cell pathologic change degree (VZV)	cell pathologic change degree [1]	cell pathologic change degree [2]	cell pathologic change degree (adenovirus type 3 (ADV3))	cell pathologic change degree [3]	cell pathologic change degree (adenovirus type 7 (ADV7))	cell pathologic change degree [4]	Solute: water [5] [mg/mL]	IC50 (coronavirus BJ01 strain) [µg/mL]	TD50 (median toxic concentration) (Vero-E6 cell) [mg/mL]	solubility [6, 8] [µg/mL]	other results
C=C1CC[C@@H]2[C@](C)(COC(=O)CCC(=O)[O-])[C@H](OC(=O)CCC(=O)[O-])CC[C@@]2(C)[C@@H]1/C=C/C1=CCOC1=O.[K+].[Na+] [Chuanhuning, Potassium Sodium Dehydroandroandrographolide Succinate, reference compound]	1+ and 2+ and 3+	1+ and 2+ and 3+	2+ and 3+	2+ and 3+	2+ and 3+	2+ and 3+	2+ and 3+	2+ and 3+					effect on cytopathogenesis (in words) [1]: inhibiting effect; toxic reaction to cells (in words) (Z-HL16C cells): no any toxic reaction; effect on cytopathogenesis (in words) [2]: inhibiting effect; effect on cytopathogenesis (in words) (adenovirus type 3 (ADV3)): inhibiting effect; toxic reaction to cells (in words) (Hep-2 cells): no any toxic reaction; effect on cytopathogenesis (in words) [3]: inhibiting effect; effect on cytopathogenesis (in words) (adenovirus type 7 (ADV7)): inhibiting effect; effect on cytopathogenesis (in words) [4]: inhibiting effect
COc1c(O)cc2occ(-c3ccc(O)cc3)c(=O)c2c1O [Compound (I), 5,7,4′-trihydroxy-6-methoxyl isoflavone, reference compound]									0.1				
COc1c(O)cc2occ(-c3ccc(O)c(S(=O)(=O)[O-])c3)c(=O)c2c1O.[Na+] [Compound (IV), tectorigenin sodium sulfonate]									67	97.6	4.34		solubility ([6]; 60 °C, after heating to 60˜100° C., read-out: water-solubility): 50000 to 60000 µg/mL; solubility ([6]; room temperature, read-out: water-solubility): 20000 µg/mL; clarity of the injection ([7]; 2-15% glucose added, room temperature and low temperature (0° C.-5° C.)): kept clarified; clarity of the injection ([7]; 4% glucose added, room and low (0° C.˜5° C.) temperature): kept clear
COc1c(O)c(CN2CCCCC2)c2occ(-c3ccc(O)cc3)c(=O)c2c1O [Compound (IX)]	2+	1+ and 2+ and 3+	2+	1+ and 2+ and 3+	1+ and 3+	1+ and 2+ and 3+	2+ and 3+	2+	8	125 (≈ 315 µM)	2.89	< 1000	
COc1c(O)cc2occ(-c3ccc(O)c(N)c3)c(=O)c2c1O [Compound (VI)]	1+ and 2+ and 3+	2+ and 3+	2+	2+	1+ and 2+ and 3+	1+ and 2+ and 3+	2+ and 3+	2+ and 3+	8	120 (≈ 381 µM)	3.85	> 1000	
COc1c(O)cc2occ(-c3ccc(OCC(=O)[O-])cc3)c(=O)c2c1O.[Na+] [Compound (VII)]	1+	1+ and 2+	2+	1+ and 2+ and 3+	1+ and 2+	1+ and 2+ and 3+	2+ and 3+	2+ and 3+	15	102	4.20	> 2000	
COc1c(O)cc2occ(-c3ccc(OCCN(C)C)cc3)c(=O)c2c1O [Compound (VIII)]	1+ and 2+	2+	2+	1+ and 2+ and 3+	1+ and 2+ and 3+	1+ and 2+ and 3+	2+ and 3+	2+ and 3+	10	112 (≈ 302 µM)	3.45	> 2000	
COc1c(O)c(CN(C)C)c2occ(-c3ccc(O)cc3)c(=O)c2c1O [Compound (X)]	1+ and 2+ and 3+	1+ and 2+	2+	1+ and 3+	1+ and 2+ and 3+	1+ and 2+ and 3+	2+ and 3+	2+ and 3+	9	119 (≈ 332 µM)	3.95	> 2000	
NC(=O)c1ncn([C@@H]2O[C@H](CO)[C@@H](O)[C@H]2O)n1 [Ribavirin, reference compound]	1+ and 2+ and 3+		1+ and 3+	2+ and 3+	1+ and 2+ and 3+	1+ and 3+	2+ and 3+	2+ and 3+					Pathologic change pore/cell pore (coronavirus BJ01 strain): 2/4 and 3/4 and 4/4 and 0/4 and 1/4
